Test results published in PMC7914897, “Cytotoxic Potential of a-Azepano- and 3-Amino-3,4-SeCo-Triterpenoids” (International Journal of Molecular Sciences, 2021).

Legend:
[1] = test system: HOP-62 (NSC lung cancer); experiment: NCI-60 screen (SRB, 48 h); conditions: Homo sapiens
[2] = test system: CCRF-CEM (Leukemia); experiment: NCI-60 screen (SRB, 48 h); conditions: Homo sapiens
[3] = test system: Breast cancer subpanel; experiment: NCI-60 screen, subpanel; conditions: Homo sapiens
[4] = test system: MOLT-4 (Leukemia); experiment: NCI-60 screen (SRB, 48 h); conditions: Homo sapiens
[5] = test system: SK-MEL-28 (Melanoma); experiment: NCI-60 screen (SRB, 48 h); conditions: Homo sapiens
[6] = test system: OVCAR-5 (Ovarian cancer); experiment: NCI-60 screen (SRB, 48 h); conditions: Homo sapiens
[7] = test system: MDA-MB-468 (Breast cancer); experiment: cells; conditions: Homo sapiens
[8] = test system: SK-MEL-5 (Melanoma); experiment: NCI-60 screen (SRB, 48 h)
[9] = test system: RPMI-8226 (Leukemia); experiment: NCI-60 screen (SRB, 48 h); conditions: Homo sapiens
[10] = test system: MCF7 (Breast cancer); experiment: NCI-60 screen (SRB, 48 h); conditions: Homo sapiens
[11] = test system: NCI-H460 (NSC lung cancer); experiment: NCI-60 screen (SRB, 48 h); conditions: Homo sapiens
[12] = test system: MDA-MB-31/ATCC (Breast cancer); experiment: NCI-60 screen (SRB, 48 h); conditions: Homo sapiens
[13] = test system: SK-OV-3 (Ovarian cancer); experiment: NCI-60 screen (SRB, 48 h); conditions: Homo sapiens
[14] = test system: MDA-MB-435 (Melanoma); experiment: NCI-60 screen (SRB, 48 h); format: cell-based; conditions: Homo sapiens
[15] = test system: Renal Cancer subpanel; experiment: NCI-60 screen, subpanel; conditions: Homo sapiens
[16] = test system: Prostate cancer subpanel; experiment: NCI-60 screen, subpanel; conditions: Homo sapiens
[17] = test system: COLO 205 (Colon cancer); experiment: NCI-60 screen (SRB, 48 h); conditions: Homo sapiens
[18] = test system: 786-0 (Renal cancer); experiment: NCI-60 screen (SRB, 48 h); conditions: Homo sapiens
[19] = test system: EKVX (NSC lung cancer); experiment: NCI-60 screen (SRB, 48 h); conditions: Homo sapiens
[20] = test system: MALME-3M (Melanoma); experiment: NCI-60 screen (SRB, 48 h); conditions: Homo sapiens
[21] = test system: Leukemia subpanel; experiment: cells; conditions: Homo sapiens
[22] = test system: SNB-19 (CNS cancer); experiment: NCI-60 screen (SRB, 48 h); conditions: Homo sapiens
[23] = test system: SK-MEL-2 (Melanoma); experiment: NCI-60 screen (SRB, 48 h); conditions: Homo sapiens
[24] = test system: HCC-2998 (Colon cancer); experiment: NCI-60 screen (SRB, 48 h); conditions: Homo sapiens
[25] = test system: NCI-H226 (NSC lung cancer); experiment: NCI-60 screen (SRB, 48 h); conditions: Homo sapiens
[26] = test system: Melanoma subpanel; experiment: NCI-60 screen, subpanel; conditions: Homo sapiens
[27] = test system: OVCAR-3 (Ovarian cancer); experiment: cells; conditions: Homo sapiens
[28] = test system: SNB-75 (CNS cancer); experiment: NCI-60 screen (SRB, 48 h)

Question: Which results are given for C=C(C)[C@@H]1CC[C@]2(C(=O)N[C@H](CO)Cc3ccccc3)CC[C@]3(C)[C@H](CC[C@@H]4[C@@]5(C)CCCNC(C)(C)[C@@H]5CC[C@]43C)[C@@H]12 [Compound 11]?
Answer: GI50 ([1]; HOP-62): 1710 nM; IC (TGI) ([1]; HOP-62, 48 h, read-out: TGI): 3340 nM; GI50 [2]: 250 nM; IC (TGI) ([2]; 48 h, read-out: TGI): 740 nM; IC (TGI) ([3]; 48 h, read-out: TGI MG_MID): 3160 nM; GI50 ([3]; read-out: GI50 MG_MID): 1410 nM; CC50 ([3]; read-out: LC50 MG_MID): 6010 nM; GI50 ([4]; MOLT-4): 670 nM; IC (TGI) ([4]; MOLT-4, 48 h, read-out: TGI): 2300 nM; GI50 ([5]; SK-MEL-28): 1550 nM; IC (TGI) ([5]; SK-MEL-28, 48 h, read-out: TGI): 3030 nM; GI50 ([6]; OVCAR-5): 1690 nM; IC (TGI) ([6]; OVCAR-5, 48 h, read-out: TGI): 3180 nM; GI50 ([7]; MDA-MB-468): 1520 nM; IC (TGI) ([7]; MDA-MB-468, 48 h, read-out: TGI): 3030 nM; CC50 ([7]; MDA-MB-468, read-out: LC50): 6010 nM; GI50 ([8]; Homo sapiens, SK-MEL-5): 1670 nM; IC (TGI) ([8]; Homo sapiens, SK-MEL-5, 48 h, read-out: TGI): 3070 nM; CC50 ([8]; Homo sapiens, SK-MEL-5, read-out: LC50): 5640 nM; Growth % of the Most Sensitive Cell Lines ([8]; SK-MEL-5, 1 dose 10 µM): −95.48%; GI50 ([9]; RPMI-8226): 240 nM; IC (TGI) ([9]; RPMI-8226, 48 h, read-out: TGI): 630 nM; GI50 ([10]; MCF7): 490 nM; IC (TGI) ([10]; MCF7, 48 h, read-out: TGI): 2060 nM; GI50 ([11]; NCI-H460): 1210 nM; IC (TGI) ([11]; NCI-H460, 48 h, read-out: TGI): 2770 nM; GI50 [12]: 1340 nM; IC (TGI) ([12]; 48 h, read-out: TGI): 2770 nM; GI50 ([13]; SK-OV-3): 1730 nM; IC (TGI) ([13]; SK-OV-3, 48 h, read-out: TGI): 3230 nM; IC (TGI) ([14]; MDA-MB-435, 48 h, read-out: TGI): 2360 nM; GI50 ([14]; MDA-MB-435, read-out: GI50): 1100 nM; IC (TGI) ([15]; 48 h, read-out: TGI MG_MID): 2930 nM; GI50 ([15]; read-out: GI50 MG_MID): 1460 nM; CC50 ([15]; read-out: LC50 MG_MID): 5760 nM; IC (TGI) ([16]; 48 h, read-out: TGI MG_MID): 2750 nM; GI50 ([16]; read-out: GI50 MG_MID): 1320 nM; GI50 ([17]; COLO 205): 1310 nM; IC (TGI) ([17]; COLO 205, 48 h, read-out: TGI): 2940 nM; GI50 ([18]; 786-0): 400 nM; IC (TGI) ([18]; 786-0, 48 h, read-out: TGI): 1600 nM; GI50 [19]: 1730 nM; IC (TGI) ([19]; 48 h, read-out: TGI): 3490 nM; GI50 [20]: 1420 nM; IC (TGI) ([21]; 48 h, read-out: TGI MG_MID): 1030 nM; GI50 ([21]; read-out: GI50 MG_MID): 340 nM; GI50 ([22]; SNB-19): 1170 nM; IC (TGI) ([22]; SNB-19, 48 h, read-out: TGI): 2720 nM; GI50 ([23]; SK-MEL-2): 1720 nM; IC (TGI) ([23]; SK-MEL-2, 48 h, read-out: TGI): 3180 nM; CC50 ([23]; SK-MEL-2, read-out: LC50): 5870 nM; GI50 ([24]; HCC 2998): 1610 nM; IC (TGI) ([24]; HCC 2998, 48 h, read-out: TGI): 3050 nM; GI50 ([25]; NCI-H226): 1740 nM; IC (TGI) ([25]; NCI-H226, 48 h, read-out: TGI): 4010 nM; IC (TGI) ([26]; 48 h, read-out: TGI MG_MID): 2870 nM; GI50 ([26]; read-out: GI50 MG_MID): 1420 nM; CC50 ([26]; read-out: LC50 MG_MID): 6070 nM; GI50 ([27]; OVCAR-3): 460 nM; IC (TGI) ([27]; OVCAR-3, 48 h, read-out: TGI): 1600 nM; GI50 ([28]; Homo sapiens, SNB-75): 1430 nM; IC (TGI) ([28]; Homo sapiens, SNB-75, 48 h, read-out: TGI): 2870 nM; CC50 ([28]; Homo sapiens, SNB-75, read-out: LC50): 5720 nM; Growth % of the Most Sensitive Cell Lines ([28]; SNB-75, 1 dose 10 µM): −95.12%
